This note sets out measurements from US8518956B2, “1-(1-(2-ethoxyethyl)-3-ethyl-7-(4-methylpyridin-2-ylamino)-1H-pyrazolo[4,3-d]pyrimidin-5-yl) piperidine-4-carboxylic acid and salts thereof” (priority 2005, dated 2013).

As a reminder, the AUC(0-inf) is the area under the concentration-time curve extrapolated to infinity. The term Cmax denotes the maximum level reached in the sampled fluid or tissue. What is called Tmax is the time at which the peak concentration occurs.

Data set [1] relates to Chinese hamster ovary (CHO) cells. Kind of data set: Method 7: Micronucleus Assay. Conditions: in vitro, with and without S9. In kind it is cell-based. The procedure: Method 7: Micronucleus Assay
An in vitro micronucleus assay can be used to determine the mutagenic potential of a test compound. This assay detects chromosome abnormalities resulting from exposure to a test compound by measuring the formation of small membrane-bound DNA fragments such as micronuclei in the cytoplasm of interphase cells.
The assay is conducted using Chinese hamster ovary (CHO) cells under different test conditions in the absence and presence of metabolic activation. Concordance in outcomes between this screening assay and in vitro cytogenetics is around 85%. Direct (−S9) testing is conducted using 24 hour or 3 hour continuous treatments, whereas testing with metabolic activation (+S9) involves a 3 hour treatment. Clastogenicity is indicated by an increase in numbers of micronucleated cells in the first interphase after exposure (in cytokinesis-blocked binucleated cells). The results are compared to the level of cytotoxicity (measured by the proportion of binucleated cells) a test compound produces. […] A test compound displaying a negative response has not fulfilled specific evaluation criteria for the assay which may include one or both of the following: 1) a reproducible concentration dependent increase in the specific assay endpoint when compared to a negative (vehicle) control and/or 2) one or more test concentrations achieving a minimum fold increase in the specific endpoint over controls. • Positive—A positive result identifies a genotoxic hazard defined by the assays specific endpoint (ex. positive in vitro micronucleus). A test compound displaying a positive response has fulfilled specific evaluation criteria for the assay which may include one or both of the following: 1) a reproducible concentration dependent increase in the specific assay endpoint when compared to a negative (vehicle) control and/or 2) one or more test concentrations achieving a minimum fold increase in the specific endpoint over controls. • Equivocal—An equivocal result is reserved for situations where the test compound has been evaluated in a valid assay test or tests (i.e. assay acceptability criteria satisfactory), but fails to display a negative or positive result as defined by established evaluation criteria. This may convey the presence of a weak positive response that requires additional repeat testing or eventual confirmatory testing case-by-case. • Inconclusive—An inconclusive result is reserved for situations where the test compound has been evaluated in an invalid assay test (i.e. assay acceptability criteria unsatisfactory for technical reasons, ex. negative or positive controls fail to respond appropriately). Repeat testing is recommended in order to establish a valid assay test result.

Data set [2] has as its system spontaneously hypertensive rats (SHR). Briefly: Method 12: SHR Rat Combination Therapy, blood pressure by telemetry. The class given is in vivo. The following applies: 1 mg/kg once daily oral.
Data set [3] deals with urinary cGMP. Briefly: Method 12: SHR Rat Combination Therapy, urinary cGMP mechanistic biomarker. In kind it is in vivo. Conditions: 0-24 hour urine collection on day 9.
Data set [4] can be described thus: Method 11: Single Dose Pharmacokinetics and Oral Bioavailability in Male Sprague-Dawley Rat. The class given is in vivo. Conditions: mean. The procedure:
Repeat testing is recommended in order to establish a valid assay test result. P. Pharmacokinetic/Pharmacodynamic Study Method 11: Single Dose Pharmacokinetics and Oral Bioavailability in Male Sprague-Dawley Rat Following Intravenous and Oral Administration
An in vivo model can be used to evaluate the single dose pharmacokinetic properties and absolute oral bioavailability of a test compound. As described more specifically below, a test compound is administered to Sprague-Dawley (SD) rats either intravenously or orally in a crossover study design and the resulting pharmacokinetic properties and oral bioavailability are measured.
Male rats are administered a 2.0 mg/kg dose orally (n=2) by gavage as a suspension (0.5% methylcellulose/0.1% Tween 80 in distilled water). After a 72 hour wash-out periond, the same rats were administered 2.0 mg/kg dose bolus intravenously (n=2) as a solution (70% PEG 400/20% 0.05 M Citrate Buffer pH 3/10% Ethanol). Serial blood samples (for plasma) are collected from each rat over a 24 hour post dose for each route. […] Pharmacokinetic parameters of a test compound are determined from the plasma concentration-time data using non-compartmental methods. • LC/MS/MS: 1) Column: Hyperso; AQUASIL C-18 2.1×20 mm, 3.0 μm; 2) Mobile phase: Aqueous Water with 0.1% Formic Acid, Orgainic: Acetonitrile; Ionization: +ESI (API 4000). MRM: m/z 494.4→m/z 394.0 (Example 261 in WO2004096810), m/z 509.44→m/z 409.80 (Example 263 in WO2004096810), m/z 495.33→m/z 395.20 (Example 262 in WO2004096810). The detection limits are 0.12 ng/mL (Example 261 in WO2004096810), 1.3 ng/mL (Example 263 in WO2004096810) and 0.11 ng/mL (Example 262 in WO2004096810).
Watson (Version 6.4.0.04) is used to calculate mean test compound concentrations, corresponding standard deviations (SD), and percent coefficient of variation (% CV), and to estimate pharmacokinetic parameters (derived by noncompartmental methods) and associated statistics (mean, SD & CV %) if applicable. (Since n=2, no SD or CV calculated ?). Concentrations below the limit of quantitation (BLQ) are reported as zero (0) and are used in the evaluation of mean concentrations and the estimation of AUC. The peak plasma concentration (Cmax) and the time to reach peak concentration (tmax) are recorded directly from individual plasma concentration-time profiles. The terminal log-linear phase of the plasma concentration-time curve is identified by linear regression of data points. The terminal half-life (t1/2) is calculated as ln(2) divided by absolute value of the slope of the terminal log-linear phase. The area under the plasma concentration-time curve from time zero to time of the last quantifiable concentration (t) [AUC(0-t)] is determined using the linear trapezoidal method. The area under the plasma concentration-time curve from time zero to infinity [AUC(0-∞)] is determined as AUC(0-t) plus the extrapolated area. The extrapolated area is determined by dividing the last observed plasma concentration by the slope of the terminal log-linear phase. Systemic plasma clearance (CL) is calculated as dose/AUC(0-∞) while the volume of distribution at steady state (Vdss) is calculated as CL×MRT, where MRT (mean residence time) is defined as AUMC(0-∞)/AUC(0-∞). The absolute PO bioavailability (F) is calculated as a ratio of the dose-normalized AUC(0-∞) of individual animal after PO administration to the dose-normalized AUC(0-∞) of individual animal after IV administration given the crossover study design.

With `CCOCCn1nc(CC)c2nc(N3CCC(C(=O)O)CC3)nc(Nc3cc(C)ccn3)c21` [Carboxypiperidine Compound, 1-(1-(2-ethoxyethyl)-3-ethyl-7-(4-methylpyridin-2-ylamino)-1H-pyrazolo[4,3-d]pyrimidin-5-yl)piperidine-4-carboxylic acid], the “METHOD 7: MI[…]” value in data set [1] is reported as “equivocal”. The “reduction of blood pressure from pre-dose baseline in comparison to vehicle treated group” value in data set [2] (day 1) amounted to 11±1 mmHg. Also, the “reduction of blood pressure below pre-dose baseline” value in data set [2] (day 7) was 9±1 mmHg. Moreover, the “urinary cGMP in comparison to vehicle treated group” value in data set [3] was “elevated”. In data set [4] (plasma, iv, 2 mg/kg), this compound gave an area under the curve AUC(0-inf) of 17500 ng·h/mL. The Vd in data set [4] (plasma, iv, 2 mg/kg, read-out: Vdss) worked out at 0.715 L/kg. For the same compound, in data set [4] (plasma, po, 2 mg/kg), the AUC(0-inf) came out at 9070 ± 2300 ng·h/mL, the peak concentration (Cmax) was determined as 1360 ± 216 ng/mL and the Tmax is 30 ± 12 min. In data set [4] (po 2 mg/kg vs iv 2 mg/kg), this compound yielded an F of 51.8 ± 13.1%.
